Measured values from patent US20260250293A1, “ULODESINE SALT” (Laevoroc Immunology AG, priority 2021, published 2026).
Read-outs that look alike come from different tables or passages of the source.

How the values were obtained:
Assay type in all cases: physicochemical
[1] = Dynamic vapour sorption (DVS); conditions: for DVS hygroscopicity / DVS water uptake: 25° C.
Procedure: The moisture sorption profile was generated at 25° C. using a DVS moisture balance flow system (Model Advantage 1.0) with the following conditions: sample size approximately 10 mg, drying 25° C. for 60 minutes, adsorption range 0% to 95% RH, desorption range 95% to 0% RH, and step interval 5%. The equilibrium criterion was <0.01% weight change in 5 minutes for a maximum of 120 minutes.

[2] = Solid state stability study; conditions: for Purity(%): HPLC
Procedure: (closed) and 40° C./75% RH (open) conditions during 2 weeks. […] At 0, 1 week and 2 weeks' time points, the corresponding samples will be sampled for purity determination by HPLC to assess the chemical stability. Also, one more sample was prepared under corresponding condition for appearance and XRPD test to evaluate the physical stability.

[3] = Thermodynamic solubility study in water, SGF, FaSSIF and FeSSIF; conditions: for XRPD of residual solid: after 24 hrs solubility study
Procedure: Then all the samples were vortex for 30 s to disperse homogenously and placed into a constant temperature shaking incubator at 37° C. with 200 rpm for 24 hrs. If the API dissolved, more material will be added to keep suspension state. The concentration, XRPD and pH were tested at desired time points.

[4] = Aqueous formulation stability; conditions: for formulation stability: in water at 0.1 mg/ml (calculated by freebase), room temperature, 14 days
Procedure: The sample condition was maintained at 21-25° C. and protected from light.
Duplicate samples were prepared by transfer 4 ml solution into an 8 mL glass bottle and all the samples were placed in dark under room temperature. At desired time points of 0, 3, 7, 10 and 14 days, the sample concentration was analysed by HPLC and the pH value was measured.

[5] = 40° C./75% RH open, 2 weeks, listed as Ulodesine Hemi succinate
[6] = 60° C. close, 2 weeks, listed as Ulodesine Hemi succinate
[7] = solubility sample in FaSSIF(pH 6.5)
[8] = solubility sample in FeSSIF(pH 5)
[9] = solubility sample in SGF(pH 1.2)
[10] = listed as Ulodesine hemi-L-glutarate
[11] = 40° C./75% RH open, 2 weeks, listed as Ulodesine Hemi L-glutarate

XRPD pre and post DVS [1]	DVS hygroscopicity [1]	DVS water uptake ([1]; at 80% RH)	DVS water uptake ([1]; at 95% RH)	TRS(%) (=100% − purity %) ([2]; 0 d)	Purity(%) ([2]; 0 d)	TRS Change(%) (Compared to 0 d) ([2]; 40° C./75% RH open, 1 week)	TRS(%) (=100% − purity %) ([2]; 40° C./75% RH open, 1 week)	Purity(%) ([2]; 40° C./75% RH open, 1 week)	Purity(%) ([2]; 40° C./75% RH open, 2 weeks)	TRS Change(%) (Compared to 0 d) ([2]; 60° C. close, 1 week)	TRS(%) (=100% − purity %) ([2]; 60° C. close, 1 week)	Purity(%) ([2]; 60° C. close, 1 week)	TRS Change(%) (Compared to 0 d) ([2]; 60° C. close, 2 weeks)	Purity(%) ([2]; 60° C. close, 2 weeks)	pH value at 24 hrs [3, 7]	pH value at 24 hrs [3, 8]	pH value at 24 hrs [3, 9]	pH value at 24 hrs ([3]; solubility sample in water)	Structure (SMILES)	also measured
No change	Moderately hygroscopic	(6.97% at 80% RH;	11.86% at 95% RH)	0.06%	99.942%	0.33%	0.39%	99.613%	99.782%	0.13%	0.18%	99.816%	0.34% TRS increased at	99.601%	6.16	5.75	5.32	6.34	O=c1nc[nH]c2c(CN3C[C@H](CO)[C@@H](O)C3)c[nH]c12 [Ulodesine hemi succinate, reference compound]	TRS Change(%) (Compared to 0 d) ([2]; 40° C./75% RH open, 2 weeks): 0.16% TRS increased at; TRS Change(%) (Compared to 0 d) [2, 5]: 0.16%; TRS(%) (=100% − purity %) [2, 5]: 0.22%; TRS Change(%) (Compared to 0 d) [2, 6]: 0.34%; TRS(%) (=100% − purity %) [2, 6]: 0.40%
No change	Moderately hygroscopic	(2.53% at 80% RH;	27.06% at 95% RH)	0.60%	99.403%	−0.12%	0.48%	99.524%	99.600%	0.15%	0.74%	99.258%	0.42% TRS	98.984%	7.72	7.78	7.75	7.58	O=c1nc[nH]c2c(CN3C[C@H](CO)[C@@H](O)C3)c[nH]c12 [Ulodesine hemi L-glutarate]	DVS hygroscopicity [1, 10]: moderately hygroscopic; DVS water uptake ([1]; at 80% RH, listed as Ulodesine hemi-L-glutarate): 2.53%; XRPD pre and post DVS [1, 10]: no change; degradation (related substance increase) ([2]; 40° C./75% RH condition, during 2 weeks): no related substance increased; TRS Change(%) (Compared to 0 d) [2, 11]: −0.20%; TRS(%) (=100% − purity %) [2, 11]: 0.40%; TRS Change(%) (Compared to 0 d) ([2]; 60° C. close, 2 weeks, listed as Ulodesine Hemi L-glutarate): 0.42%; appearance and XRPD (polymorph) change ([2]; during 2 weeks under 60° C. and 40° C./75% RH conditions): no appearance and polymorph change; chemical stability based on the purity result ([2]; under 40° C./75% RH condition): more chemically stable than Ulodesine Hemi succinate; XRPD of residual solid ([3]; FaSSIF(pH 6.5)): changed compared to initial solid form; XRPD of residual solid ([3]; FeSSIF(pH 5)): changed compared to initial solid form; XRPD of residual solid ([3]; water): changed compared to initial solid form; change of appearance, concentration and purity of solution ([4]; in water at 0.1 mg/ml (cal. by freebase), 14 days at room temperature, dark): no significant change; formulation stability [4]: physically and chemically stable for 14 days; formulation stability ([4]; listed as ulodesine hemi L-glutarate): good formulation stability
No change	Moderately hygroscopic	(3.68% at 80% RH;	15.80% at 95% RH)	–	–	–	–	–	–	–	–	–	–	–	6.40	6.09	5.60	6.56	O=c1nc[nH]c2c(CN3C[C@H](CO)[C@@H](O)C3)c[nH]c12 [Ulodesine hemi adipinate]	–
